{"source": "patent US20100016256A1", "about": "“Taxane Compounds for Treating Eye Disease” (priority 2008, published 2010)", "key": {"[1]": {"details": "paclitaxel conjugated to cobalt atom of cobalamin"}, "[2]": {"tested_on": "choroidal neovascularization by laser burns on the eye", "details": "rats", "protocol": "Groups of 8 rats/dosage group or vehicle are neovascularized by laser burns on the eye. Afterwards, the eye is immediately treated with a cobalamin-paclitaxel bioconjugate prepared in accordance with Example 1 at a dose of 1.5 μg/2 μL, 5.0 μg/2 μL, and 15 μg/2 μL (indicated as B.C. in FIG. 1). The treatment regimen also includes a vehicle and Kenacort Retard® (4% triamcinolone acetonide), as a positive control. Each treatment is scored at 7, 14, and 21 days post-treatment by infusing the eye with fluorescein and scoring the leakage using angiography. A score of 0 indicates no leakage while a score of 3 indicates severe leakage. The results of the test are shown in FIG. 1 as the percentage of […] scoring 3."}, "[3]": {"tested_on": "blood vessel lesions of the eye", "details": "rats", "from_the_text": "In another study, flat mount evaluation of the eyes can be carried out at the end of the study because angiography may not provide a full evaluation of the effect of the drug. At the end of the study, the eyes are removed, histologically processed and all lesions can be seen (including those that can not be detected by angiography).\nGroups of 8 rats/dosage group are neovascularized by laser burns, followed by immediate treatment of the eye with a cobalamin-paclitaxel bioconjugate prepared in accordance with Example 1. Dosages used are 1.5 μg/2 μL, 5.0 μg/2 μL, and 15 μg/2 μL. The treatments also include a vehicle and Kenacort Retard® (4% triamcinolone acetonide). After 21 days, the eyes are removed, histologically processed, and the lesion size scored in μm^3."}, "[4]": {"tested_on": "bFGF-stimulated formation of new blood vessel in the Matrigel plug", "experiment": "Matrigel plug perfusion in vivo assay", "details": "mice, Matrigel and bFGF; for Matrigel Plug/Plasma Fluorescence Ratio: oral gavage", "protocol": "A Matrigel® plug perfusion in vivo assay is performed to determine the anti-angiogenic efficiacy of the cobalamin-paclitaxel bioconjugate (Cob-Pac) of Example 1. The assay uses Matrigel®, a gelatinous protein mixture secreted by mouse tumor cells (BD Biosciences, San Jose, Calif.), to duplicate tissue environments. Matrigel® is liquid at […], but when injected into the animal, forms a solid plug. If a growth vessel stimulant such as basic fibroblast growth factor (bFGF) is mixed with the Matrigel®, the bFGF stimulates the formation of new blood vessel in the plug, which can be monitored in the animal via fluorescence techniques. In the current study, Matrigel® is injected either alone or with bFGF subcutaneously into mice."}, "[5]": {"tested_on": "viable circulating endothelial cell precursors (CEPs)", "details": "mice; for Viable CEPs per microliter of peripheral blood: after 28 days", "protocol": "(§1) A group of 6 mice are administered various dosages of the cobalamin-paclitaxel bioconjugate prepared in accordance with Example 1 over a 28-day period. The effects on counts of viable circulating endothelial cell precursors and white blood cells are measured after 28 days."}, "white blood cells": {"tested_on": "white blood cells", "details": "mice; for White blood cells per 10^4 peripheral blood cells: after 28 days", "protocol": "as §1"}, "[6]": {"details": "1.5 mg/kg paclitaxel delivered as bioconjugate"}, "[7]": {"details": "2 mg/kg paclitaxel delivered as bioconjugate"}, "[8]": {"details": "3 mg/kg paclitaxel delivered as bioconjugate"}, "[9]": {"details": "6 mg/kg paclitaxel delivered as bioconjugate"}, "[10]": {"details": "30 mg/kg paclitaxel delivered as bioconjugate"}}, "note": "Read-outs that look alike come from different tables or passages of the source."}
{"compound": "CC(=O)O[C@H]1C(=O)[C@@]2(C)C([C@H](OC(=O)c3ccccc3)[C@]3(O)C[C@H](OC(=O)[C@H](OC(=O)C[NH+](C)CC[CH2][Co+][N]4/C5=C(/C)C6=N/C(=C\\C7=NC(=C(/C)C8=NC(C(C)C4C(CC(N)=O)C5(C)CCC(=O)NCC(C)OP(=O)([O-])OC4C(CO)OC(n5cnc9cc(C)c(C)cc95)C4O)C(C)(CC(N)=O)C8CCC(N)=O)/C(C)(CC(N)=O)C7CCC(N)=O)C(C)(C)C6CCC(N)=O)[C@@H](NC(=O)c4ccccc4)c4ccccc4)C(C)=C1C3(C)C)[C@]1(OC(C)=O)COC1C[C@@H]2O.[Cl-]", "note": "(stereo partly drawn) [cobalamin-paclitaxel bioconjugate, Cbl-(CH2)3N(CH3)CH2COO-2′-P7X]", "values": [{"measurement": "water solubility", "setting": "[1]", "result": "over 100 mg/ml"}, {"measurement": "Anti-angiogenic effect by fluorescein leakage score (FIG. 1)", "setting": "[2]; after 7 days, intermediate and high doses (5.0 and 15 μg/2 μL)", "result": "anti-angiogenic results"}, {"measurement": "Anti-angiogenic effect by fluorescein leakage score (FIG. 1)", "setting": "[2]; after 14 days, high dose (15 μg/2 μL)", "result": "anti-angiogenic benefit"}, {"measurement": "Number of blood vessel lesions (FIG. 2)", "setting": "[3]; 21 days, 1.5, 5.0 and 15 μg/2 μL", "result": "decrease in a concentration dependent manner"}, {"measurement": "Inhibition of new blood vessel growth (lesion study)", "setting": "[3]; 21 days, high and medium concentrations (15 and 5.0 μg/2 μL)", "result": "efficacious in inhibiting new blood vessel growth"}, {"measurement": "Effect on growth of new blood vessels in Matrigel plug", "setting": "[4]; each dose (2, 6, 30 mg/kg), greatest effect at 2 and 6 mg/kg", "result": "inhibits the growth of new blood vessels"}, {"measurement": "Matrigel Plug/Plasma Fluorescence Ratio", "setting": "[4]; 2 mg/kg expressed in paclitaxel units", "result": 0.0007}, {"measurement": "Matrigel Plug/Plasma Fluorescence Ratio", "setting": "[4]; 6 mg/kg expressed in paclitaxel units", "result": 0.0005}, {"measurement": "Matrigel Plug/Plasma Fluorescence Ratio", "setting": "[4]; 30 mg/kg expressed in paclitaxel units", "result": 0.0011}, {"measurement": "Viable CEPs per microliter of peripheral blood", "setting": "[5]; [6]", "result": "0.4 per microliter of peripheral blood"}, {"measurement": "Viable CEPs per microliter of peripheral blood", "setting": "[5]; [7]", "result": "0.25 per microliter of peripheral blood"}, {"measurement": "Viable CEPs per microliter of peripheral blood", "setting": "[5]; [8]", "result": "0.4 per microliter of peripheral blood"}, {"measurement": "Viable CEPs per microliter of peripheral blood", "setting": "[5]; [9]", "result": "0.9 per microliter of peripheral blood"}, {"measurement": "Viable CEPs per microliter of peripheral blood", "setting": "[5]; [10]", "result": "1.2 per microliter of peripheral blood"}, {"measurement": "Most effective dose (decrease in viable CEPs)", "setting": "[5]; 28-day dose study, dose as paclitaxel", "result": "about 2 mg/kg"}, {"measurement": "White blood cells per 10^4 peripheral blood cells", "setting": "white blood cells; [6]", "result": "6700 per 10^4 peripheral blood cells"}, {"measurement": "White blood cells per 10^4 peripheral blood cells", "setting": "white blood cells; [7]", "result": "6700 per 10^4 peripheral blood cells"}, {"measurement": "White blood cells per 10^4 peripheral blood cells", "setting": "white blood cells; [8]", "result": "7000 per 10^4 peripheral blood cells"}, {"measurement": "White blood cells per 10^4 peripheral blood cells", "setting": "white blood cells; [9]", "result": "6700 per 10^4 peripheral blood cells"}, {"measurement": "White blood cells per 10^4 peripheral blood cells", "setting": "white blood cells; [10]", "result": "8100 per 10^4 peripheral blood cells"}, {"measurement": "Toxicity by white blood cell count (neutropenia)", "setting": "white blood cells; 28 days, absence of a decrease in white blood cell count", "result": "no neutropenia"}]}
